These results are taken from article PMC4284078 (Virology, 2014).

The nature of this data set: FTIR spectroscopy secondary structure. Type of data set: physicochemical. The conditions noted are these: 2 mM peptide in deuterated 10 mM phosphate buffer pD 5.6, 25°C, means of four separate determinations, SE ± 5% or better.

As for “Arg Cys^S- Arg Phe Arg Val D-Pro Cha His Arg Tyr Arg Cys^s Arg -CON H2 (disulfide) [HCV5]”, the “% Conformation Disordered” value is listed as 12.83%, the “% Conformation Turn” value worked out at 25.72%, the “% Conformation α-Helix” value stood at 10.55% and the “% Conformation β-Sheet” value is listed as 50.90%.

“Cys^S- Ser Phe Arg Val Gly Leu His Glu Tyr Pro Cys^s -CON H2 (disulfide) [HCV3]”: the “% Conformation Disordered” value is recorded as 12.04%, the “% Conformation Turn” value is 21.96%, the “% Conformation α-Helix” value is recorded as 11.60% and the “% Conformation β-Sheet” value was 54.34%.

As for “Pal-Ahx-Ahx- Arg Cys^S- Arg Phe Arg Val D-Pro Cha His Arg Tyr Arg Cys^S- Arg -CON H2 (disulfide) [HCV6]”, the “% Conformation Disordered” value is listed as 14.40%, the “% Conformation Turn” value was determined as 20.39%, the “% Conformation α-Helix” value is reported as 12.34% and the “% Conformation β-Sheet” value was found to be 52.87%.

In the case of “Val Ser Phe Arg Val Gly Leu His Glu Tyr Pro Val -CON H2 [HCV1]”, the “% Conformation Disordered” value came to 23.74%, the “% Conformation Turn” value stood at 31.05%, the “% Conformation α-Helix” value stood at 2.10% and the “% Conformation β-Sheet” value is listed as 43.11%.
